The record followed here is PubChem BioAssay (NCI).

Some test systems named below: OVCAR-4 ovarian; OVCAR-8 ovarian; COLO 205 colon; SK-MEL-28 melanoma; UACC-62 melanoma; MCF7 breast; DU-145 prostate; SR leukemia; M14 melanoma; SF-268 CNS.
Holding throughout (assay): growth of human tumour cells (NCI), 48 h

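Values below derive from 48-hour exposures of cells grown in 96-well plates, with endpoints linearly interpolated between the two concentrations bracketing the appropriate inhibition level. GI50 is the concentration that inhibits growth by half. TGI: total growth inhibition.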

Turning to `COc1cc(C(=O)N/N=C/c2cccc([N+](=O)[O-])c2)cc(OC)c1OC`, the GI50 with OVCAR-4 ovarian is 43.4 µM; in the assay on OVCAR-8 ovarian, 23.6 µM; in the assay on COLO 205 colon, 5.11 µM; with SK-MEL-28 melanoma it was 39.3 µM; in the assay with UACC-62 melanoma it was 6.31 µM; in the assay with MCF7 breast it was 4.49 µM. Besides, the GI50 with DU-145 prostate is 7.1 µM; in the assay on SR leukemia, 0.558 µM; in the assay on M14 melanoma, 4.3 µM; in the assay on SF-268 CNS it was 5.57 µM. The TGI in the assay on OVCAR-4 ovarian was above 100 µM; with OVCAR-8 ovarian it was above 100 µM; with COLO 205 colon, 26.9 µM; with SK-MEL-28 melanoma it was above 100 µM; in the assay on UACC-62 melanoma, above 100 µM; in the assay with MCF7 breast it was above 100 µM. Also, the TGI in the assay with DU-145 prostate was above 100 µM; with SR leukemia, above 100 µM; in the assay with M14 melanoma it was 54.3 µM; in the assay on SF-268 CNS, above 100 µM.
`CC(C)n1nc(C#Cc2cccc(NC(=O)c3cccc(C(F)(F)F)c3)c2)c2c(N)ncnc21`: the GI50 in the assay on OVCAR-4 ovarian is 3.54 µM; in the assay with OVCAR-8 ovarian, 3.15 µM; in the assay on COLO 205 colon, 0.524 µM; in the assay with SK-MEL-28 melanoma, 0.368 µM; in the assay with UACC-62 melanoma it was 0.19 µM; in the assay on MCF7 breast, 7.5 µM. For the same compound, the GI50 in the assay on DU-145 prostate was 2.78 µM; with SR leukemia, 3.67 µM; in the assay with M14 melanoma it was 0.309 µM; with SF-268 CNS, 2.15 µM. In addition, the TGI in the assay with OVCAR-4 ovarian is 34.4 µM; in the assay on OVCAR-8 ovarian, above 100 µM; with COLO 205 colon it was 5.73 µM; in the assay with SK-MEL-28 melanoma it was 6.82 µM; in the assay with UACC-62 melanoma, 1.24 µM; with MCF7 breast, above 100 µM. For the same compound, the TGI with DU-145 prostate was 12.3 µM; in the assay on SR leukemia it was above 100 µM; in the assay on M14 melanoma, 2.03 µM; in the assay with SF-268 CNS, 10.4 µM.
For the compound `O=c1[nH]c2cc(O)ccc2n2cc3c(F)cccc3c12`, the GI50 with OVCAR-4 ovarian was above 100 µM; in the assay on OVCAR-8 ovarian, 3.85 µM; in the assay with COLO 205 colon, 7.3 µM; with UACC-62 melanoma, 1.29 µM; in the assay with MCF7 breast, 0.936 µM; in the assay on DU-145 prostate it was 6.78 µM. For the same compound, the GI50 with SR leukemia is 0.509 µM; in the assay on M14 melanoma it was 1.38 µM; with SF-268 CNS, 2.57 µM. Besides, the TGI in the assay with OVCAR-4 ovarian, with OVCAR-8 ovarian, with COLO 205 colon, in the assay on UACC-62 melanoma, in the assay on MCF7 breast and in the assay on DU-145 prostate was above 100 µM throughout. In addition, the TGI is 28.9 µM in the assay with SR leukemia, above 100 µM in the assay on M14 melanoma and above 100 µM in the assay on SF-268 CNS.
Regarding `O=C(Nc1ccccc1)Nc1ccccc1CNc1nc(Nc2ccc(OCCN3CCCC3)cc2)ncc1Cl`, the GI50 in the assay with OVCAR-4 ovarian was 1.81 µM; in the assay with OVCAR-8 ovarian, 7.62 µM; in the assay with SK-MEL-28 melanoma, 5.62 µM; in the assay on UACC-62 melanoma, 3.83 µM; in the assay on MCF7 breast, 1.69 µM; with DU-145 prostate, 5.55 µM. Besides, the results for the GI50 with SR leukemia, in the assay with M14 melanoma and with SF-268 CNS were 1.91 µM, 2.51 µM and 6.2 µM, respectively. Further, the TGI in the assay on OVCAR-4 ovarian was 7.84 µM; with OVCAR-8 ovarian, above 50 µM; in the assay on SK-MEL-28 melanoma, 11.9 µM; in the assay on UACC-62 melanoma, 10.9 µM; with MCF7 breast, 7.82 µM; in the assay on DU-145 prostate it was 12.4 µM. Besides, the TGI is above 50 µM in the assay on SR leukemia, 9.79 µM with M14 melanoma and 16.6 µM in the assay with SF-268 CNS.
As for `COC(=O)C(=O)C(C(=O)C(=O)Nc1ccccc1C(N)=O)c1nc2ccc(C(=O)c3ccccc3)cc2[nH]c1=O` (stereo unspecified), the TGI in the assay on OVCAR-4 ovarian was above 100 µM; with OVCAR-8 ovarian it was above 100 µM; with COLO 205 colon, above 100 µM; with SK-MEL-28 melanoma it was above 100 µM; in the assay on UACC-62 melanoma, 65.4 µM; in the assay on SR leukemia, above 100 µM. The TGI in the assay with M14 melanoma and in the assay with SF-268 CNS was above 100 µM each time.
Regarding `CCCCCCN1C(=O)CN=C1Nc1ccc2cc3ccc(NC4=NCC(=O)N4CCCCCC)cc3nc2c1`, the GI50 with OVCAR-4 ovarian was 1.66 µM; in the assay on COLO 205 colon it was 1.88 µM; with SK-MEL-28 melanoma, 2.21 µM; with UACC-62 melanoma, 11.7 µM; in the assay on MCF7 breast it was 1.66 µM; in the assay with DU-145 prostate, 1.94 µM. Also, the values for the GI50 with SR leukemia, in the assay with M14 melanoma and in the assay with SF-268 CNS were 1.53 µM, 1.95 µM and 2.02 µM, respectively. Moreover, the TGI came out at 4.01 µM with OVCAR-4 ovarian; 4.04 µM with COLO 205 colon; 5.92 µM with SK-MEL-28 melanoma; 30 µM with UACC-62 melanoma; 3.95 µM in the assay with MCF7 breast; 4.21 µM with DU-145 prostate. For the same compound, the TGI in the assay with SR leukemia is 4.22 µM; in the assay on M14 melanoma, 4.84 µM; in the assay on SF-268 CNS it was 5.72 µM.
As to `CC[C@@]1(O)C(=O)OCc2c1cc1n(c2=O)Cc2cc3c(NC(C)=O)c(O)ccc3nc2-1`, the GI50 in the assay on OVCAR-4 ovarian was 14.6 µM; with OVCAR-8 ovarian, 1.54 µM; in the assay on COLO 205 colon, 17.6 µM; in the assay on SK-MEL-28 melanoma it was above 25.9 µM; in the assay on UACC-62 melanoma, 0.272 µM; with SR leukemia it was below 0.0148 µM. Moreover, the GI50 in the assay with M14 melanoma was 1.04 µM; with SF-268 CNS it was 0.417 µM. For the same compound, the TGI in the assay on OVCAR-4 ovarian is 44.7 µM; in the assay on OVCAR-8 ovarian it was above 47.7 µM; in the assay on COLO 205 colon, above 100 µM; in the assay on SK-MEL-28 melanoma it was above 100 µM; with UACC-62 melanoma, 2.71 µM; in the assay on SR leukemia it was 0.108 µM. For the same compound, the values for the TGI in the assay with M14 melanoma and in the assay on SF-268 CNS were 15.8 µM and above 52.3 µM, respectively.
`CCOc1cccnc1/C=N/NC(N)=S`: the GI50 was 2.79 µM in the assay with OVCAR-4 ovarian; 3.48 µM in the assay with OVCAR-8 ovarian; 3.87 µM in the assay on COLO 205 colon; 4.75 µM in the assay with SK-MEL-28 melanoma; 3.25 µM in the assay on MCF7 breast; 3.53 µM in the assay with DU-145 prostate. Besides, the GI50 with SR leukemia was 2.98 µM; in the assay with M14 melanoma, 3.14 µM; in the assay on SF-268 CNS it was 3.42 µM. The TGI in the assay on OVCAR-4 ovarian, with OVCAR-8 ovarian, in the assay with COLO 205 colon, with SK-MEL-28 melanoma, in the assay on MCF7 breast and with DU-145 prostate was above 100 µM throughout. The TGI in the assay on SR leukemia is 12.3 µM; in the assay on M14 melanoma it was 15 µM; with SF-268 CNS it was above 100 µM.
